Like-named read-outs stand apart in the source and are kept apart here.
Columns and labels:
[1] = target: T1, recombinant human His-tagged MDM2 protein (residues 1-118) (Homo sapiens, UniProt Q00987); assay: biochemical
HCT116 p53 WT = assay: Cell growth assay (WST-8), HCT116 p53 WT; assay type: cell-based; conditions: Homo sapiens, HCT-116, 96 h, 4 days
[2] = target: T1, recombinant human His-tagged MDM2 protein (residues 1-118); assay: Fluorescence-polarization MDM2 competitive binding assay; conditions: for Ki: MDM2 (FP binding assay) Ki(nM), competitive FP
SJSA-1 cells = assay: Cell growth assay (WST-8), SJSA-1; assay type: cell-based, human; conditions: for IC50: Homo sapiens, SJSA-1, 96 h, 4 days
[3] = tested on: HCT116 p53 deleted (HCT116 p53−/−); assay: Cell growth assay (WST-8), HCT116 p53 deleted; assay type: cell-based; conditions: Homo sapiens, HCT-116, 96 h, 4 days
SJSA-1 xenograft tumors = assay: In vivo efficacy in SJSA-1 xenograft model; design: species or system C.B-17 SCID mice; conditions: for anti-tumor activity in mice bearing SJSA-1 xenograft tumors (in words): FIG. 2B
Description: In Vivo Efficacy Studies Using SJSA-Xenograft Models
SJSA-1 (osteosarcoma) tumor cells were harvested with Trypsin (0.05%)-EDTA (0.53 mM) (GIBCO™, Invitrogen Corp.), growth medium was added, and the cells were placed on ice. A cell sample was mixed 1:1 with Trypan Blue (GIBCO™, Invitrogen Corp.) and counted on a hemocytometer to determine the number of live/dead cells. Cells were washed once with 1×PBS (GIBCO™, Invitrogen Corp.) and resuspended in PBS. For Matrigel injections, after washing in PBS, cells are resuspended in an ice cold mixture of 1:1 PBS and Matrigel (BD Biosciences, Invitrogen Corp.) for a final Matrigel protein concentration of 5 mg/ml. SJSA-1 tumors were inoculated into C.B-17 SCID mice at 5×10^6 cells in 0.1 ml with Matrigel. Cells were injected s.c. into the flank region of each mouse using a 27 gauge needle.
The size of tumors growing in the mice was measured in two dimensions using calipers. Tumor volume (mm^3)=(A×B^2)/2 where A and B are the tumor length and width (in mm), respectively. During treatment, tumor volume and body weight was measured three times a week. After the treatment was stopped, tumor volume and body weight was measured at least once a week. Mice were kept for an additional 60 days for further observation of tumor growth and toxicity. The anti-tumor activity of compound No. 8 (administered via oral gavage) at different doses and according to different dosing schedules, including weekly for 3 weeks (qw*3 wks), every other day for 3 weeks, daily for 3 days out of a week for 3 weeks (qd1-3/w*3 wks), and daily for 2 weeks (qd*14 d), is shown in FIG. 3.

[4] = Oral pharmacokinetics in Sprague-Dawley rats; conditions: rat, in vivo, 25 mg/kg oral
[5] = Microsomal stability, mouse; assay type: in vitro ADME; conditions: mouse microsomes; read-out: Microsomal stability T1/2 (min) Mouse
RS4; 11 = assay: Cell growth assay (WST), RS4;11; assay type: cell-based; conditions: Homo sapiens, RS4-11, 96 h, Leukemia, p53 wild-type, 4 days, read-out: Cell Growth Inhibition (IC50) RS4
ZR-75-1 = assay: Cell growth assay (WST), ZR-75-1; assay type: cell-based; conditions: Homo sapiens, ZR-75-1, 96 h, Breast cancer, p53 wild-type, 4 days, read-out: Cell Growth Inhibition (IC50) ZR-75-1
Description: Cells were seeded in 96-well flat bottom cell culture plates at a density of 2-3×10^3 cells/well with compounds and incubated for 4 days. […] 92037, USA).

[6] = Microsomal stability, rat; assay type: in vitro ADME; conditions: rat microsomes; read-out: Microsomal stability T1/2 (min) Rat
LNCaP = assay: Cell growth assay (WST), LNCaP; assay type: cell-based; conditions: Homo sapiens, 96 h, Prostate cancer, p53 wild-type, 4 days, read-out: Cell Growth Inhibition (IC50) LNCaP
PC3 = assay: Cell growth assay (WST), PC3; assay type: cell-based; conditions: Homo sapiens, PC-3, 96 h, Prostate cancer, p53 null, 4 days, read-out: Cell Growth Inhibition (IC50) PC3
[7] = Microsomal stability, human; assay type: in vitro ADME; conditions: human microsomes; read-out: Microsomal stability T1/2 (min) Human
Saos2 = assay: Cell growth assay (WST), Saos2; assay type: cell-based; conditions: Homo sapiens, SAOS-2, 96 h, Osteosarcoma, p53 null, 4 days, read-out: Cell Growth Inhibition (IC50) Saos2
[8] = Microsomal stability, dog; assay type: in vitro ADME; conditions: dog microsomes; read-out: Microsomal stability T1/2 (min) Dog
[9] = Stability of compounds in solution (UPLC); assay type: physicochemical; conditions: FIG. 1; 1:1 CH3CN/H2O, 1:1 MeOH/H2O, cell culture media
Description: Stability of Compounds in Solution
The stability of the compounds were determined in 1:1 MeOH:H2O, 1:1 CH3CN:H2O, and cell culture medium using ultra performance liquid chromatography.

[10] = WST-8, read-out: Cell Growth Inhibition IC50 (μM) HCT116 p53 WT
[11] = WST-8, read-out: Cell Growth Inhibition IC50 (μM) SJSA-1
[12] = WST-8, read-out: Cell Growth Inhibition IC50 (μM) HCT116 p53 deleted
[13] = Colon cancer, p53 wild-type, WST assay, read-out: Cell Growth Inhibition (IC50) HCT116
[14] = Osteosarcoma, p53 wild-type, WST assay, read-out: Cell Growth Inhibition (IC50) SJSA-1
[15] = Colon cancer, p53 knock-out, WST assay, read-out: Cell Growth Inhibition (IC50) HCT116 p53−/−

SMILES | IC50 [1] | IC50 (HCT116 p53 WT; [10]) | binding affinity to MDM2 (in words) [2] | cell growth inhibition in SJSA-1 cells (in words) (SJSA-1 cells) | IC50 (SJSA-1 cells; [11]) | IC50 [3, 12] | Ki [2] | anti-tumor activity in mice bearing SJSA-1 xenograft tumors (in words) (SJSA-1 xenograft tumors) | AUC(0-inf) [4] | AUC(0-t) [4] | Tmax [4] | half-life [4] | half-life [5] | IC50 (ZR-75-1) | half-life [6] | half-life [7] | half-life [8] | further results
O=C(NC12CC(C(=O)O)(C1)C2)[C@@H]1NC2(CCCCC2)[C@@]2(C(=O)Nc3cc(Cl)ccc32)[C@H]1c1cccc(Cl)c1F [Cpd No. 1] | 5.4 nM | 3.7 µM | high binding affinity | reduced potency | 0.48 µM | 12.6 µM | – | – | – | – | – | – | – | – | – | – | – | –
O=C(NC12CCC(C(=O)O)(CC1)CC2)[C@@H]1NC2(CCC(F)(F)CC2)[C@@]2(C(=O)Nc3cc(Cl)ccc32)[C@H]1c1cccc(Cl)c1F [Cpd No. 3] | 8.8 nM | – | – | – | 0.165 µM | – | < 1 nM | – | – | – | – | – | – | – | – | – | – | –
O=C(NC12CCC(C(=O)O)(CC1)CC2)[C@@H]1NC2(CCCCC2)[C@@]2(C(=O)Nc3cc(Cl)ccc32)[C@H]1c1cccc(Cl)c1F [Cpd No. 2] | 5.2 nM | 0.137 ± 0.031 µM | high binding affinity | potent cell growth inhibition activity | 0.089 ± 0.033 µM | 14 ± 2 µM | – | only modest anti-tumor activity | 74300 ± 5260 ng·h/mL | 73600 ± 5020 ng·h/mL | 3.33 ± 1.15 h | 4.29 ± 0.371 h | > 60 min | 677 ± 252 nM | > 60 min | > 60 min | > 60 min | Cmax [4]: 8230 ± 278 ng/mL; IC50 (RS4; 11): 62 ± 26 nM; IC50 (HCT116 p53 WT; [13]): 0.137 ± 0.031 µM; IC50 (LNCaP): 36 ± 19 nM; IC50 (PC3): 12300 ± 2500 nM; IC50 (Saos2): 26700 ± 5100 nM; IC50 (SJSA-1 cells; [14]): 0.089 ± 0.033 µM; IC50 [3, 15]: 14 ± 2 µM
CN1[C@@H](C(=O)NC23CCC(C(=O)O)(CC2)CC3)[C@H](c2cccc(Cl)c2F)[C@]2(C(=O)Nc3cc(Cl)ccc32)C12CCCCC2 [Cpd No. 7] | – | – | high binding affinity | – | – | – | – | complete and persistent tumor regression | 35400 ± 15500 ng·h/mL | 35200 ± 15200 ng·h/mL | 4 h | 3.89 ± 1.02 h | > 60 min | 713 ± 165 nM | > 60 min | > 60 min | > 60 min | stability in solutions (in words) [9]: stable in solutions
CC1(O)CCC2(CC1)N[C@@H](C(=O)NC13CCC(C(=O)O)(CC1)CC3)[C@H](c1cccc(Cl)c1F)[C@]21C(=O)Nc2cc(Cl)ccc21 (some centres unmarked) [Cpd No. 6] | 7.3 nM | – | – | – | – | – | < 1 nM | – | – | – | – | – | – | – | – | – | – | –
CC1(O)CCC2(CC1)N[C@@H](C(=O)NC13CCC(C(=O)O)(CC1)CC3)[C@H](c1cccc(Cl)c1F)[C@]21C(=O)Nc2cc(Cl)ccc21 (some centres unmarked) [Cpd No. 5] | 131 nM | – | – | – | – | – | 30 nM | – | – | – | – | – | – | – | – | – | – | –
CCN1[C@@H](C(=O)NC23CCC(C(=O)O)(CC2)CC3)[C@H](c2cccc(Cl)c2F)[C@]2(C(=O)Nc3cc(Cl)ccc32)C12CCCCC2 [Cpd No. 8] | – | 0.104 ± 0.036 µM | high binding affinity | – | 0.06 ± 0.022 µM | 8 ± 1 µM | – | complete and persistent tumor regression | 39500 ± 8520 ng·h/mL | 39100 ± 8470 ng·h/mL | 4 h | 4.61 ± 1.35 h | > 60 min | 462 ± 36 nM | > 60 min | > 60 min | > 60 min | stability in solutions (in words) [9]: stable in solutions; IC50 (HCT116 p53 WT; [13]): 0.104 ± 0.036 µM; IC50 (LNCaP): 18 ± 13 nM; IC50 (PC3): 22000 ± 7200 nM; IC50 (Saos2): 22700 ± 4700 nM; IC50 (SJSA-1 cells; [14]): 0.06 ± 0.022 µM; IC50 [3, 15]: 8 ± 1 µM
CS(=O)(=O)NC(=O)C12CCC(NC(=O)[C@@H]3NC4(CCCCC4)[C@@]4(C(=O)Nc5cc(Cl)ccc54)[C@H]3c3cccc(Cl)c3F)(CC1)CC2 [Cpd No. 4] | 7.9 nM | – | – | – | 0.373 µM | – | – | – | – | – | – | – | – | – | – | – | – | –
O=C(O)c1ccc(NC(=O)[C@@H]2NC3(CCCCC3)[C@@]3(C(=O)Nc4cc(Cl)ccc43)[C@H]2c2cccc(Cl)c2F)cc1 [AA-MI-061, reference compound] | – | – | high binding affinity | potent cell growth inhibition | – | – | – | – | – | – | – | – | – | – | – | – | – | tumor regression (SJSA-1 xenograft tumors; 100 mg/kg, once, daily dosing, SCID mice bearing SJSA-1 xenografts (FIG. 2A)): 90%
CN1[C@@H](C(=O)NC23CCC(C(N)=O)(CC2)CC3)[C@H](c2cccc(Cl)c2F)[C@]2(C(=O)Nc3cc(Cl)ccc32)C12CCCCC2 [Cpd No. 9] | 5.2 nM | 0.266 ± 0.127 µM | – | – | 0.173 ± 0.031 µM | 9 ± 1 µM | < 1 nM | – | – | – | – | – | – | – | – | – | – | –

Source: patent publication US9745314B2, “MDM2 inhibitors and therapeutic methods using the same” (THE REGENTS OF THE UNIVERSITY OF MICHIGAN, priority 2014, dated 2017)
